In general, IC50 refers to the concentration needed to halve the response being measured.

Structures are written as SMILES.

One assay deals with T1, Human Axl (Homo sapiens, UniProt P30530).
T1 construct: Human AXL (residues 464-885)
T1 sequence (P30530 1-894 Q764R): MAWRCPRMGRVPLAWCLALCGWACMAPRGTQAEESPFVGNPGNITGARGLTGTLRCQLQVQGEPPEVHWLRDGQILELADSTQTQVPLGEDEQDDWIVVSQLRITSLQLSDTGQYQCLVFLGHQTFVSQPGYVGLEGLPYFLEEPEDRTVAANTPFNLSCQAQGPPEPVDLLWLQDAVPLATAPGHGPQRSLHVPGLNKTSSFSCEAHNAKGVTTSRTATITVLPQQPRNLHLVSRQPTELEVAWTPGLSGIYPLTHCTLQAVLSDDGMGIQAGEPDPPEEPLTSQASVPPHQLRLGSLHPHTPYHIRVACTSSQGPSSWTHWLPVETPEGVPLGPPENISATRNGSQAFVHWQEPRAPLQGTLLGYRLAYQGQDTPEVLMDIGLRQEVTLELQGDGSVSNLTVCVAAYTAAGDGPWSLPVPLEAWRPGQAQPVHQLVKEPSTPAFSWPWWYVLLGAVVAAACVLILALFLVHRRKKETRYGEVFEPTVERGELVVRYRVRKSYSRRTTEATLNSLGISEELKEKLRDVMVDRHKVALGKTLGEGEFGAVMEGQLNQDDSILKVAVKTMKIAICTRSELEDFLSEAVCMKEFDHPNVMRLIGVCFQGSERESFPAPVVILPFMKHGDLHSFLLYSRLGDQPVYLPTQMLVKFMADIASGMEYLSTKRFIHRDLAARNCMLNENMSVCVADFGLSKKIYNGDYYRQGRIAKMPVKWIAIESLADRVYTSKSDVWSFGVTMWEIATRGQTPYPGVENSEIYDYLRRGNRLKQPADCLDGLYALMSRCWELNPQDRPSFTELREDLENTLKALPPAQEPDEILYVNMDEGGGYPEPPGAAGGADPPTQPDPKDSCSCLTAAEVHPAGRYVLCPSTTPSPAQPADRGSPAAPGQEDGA
Description: Human AXL kinase assay (33P radiometric / HTRF KinEase). The format is biochemical. The conditions noted are these: protocols of Examples A-1 and/or A-2. As to the method:
Kinase activity and compound inhibition were investigated using the ^33P-Phosphoryl transfer radiometric kinase assay, performed using the KinaseProfiler™ service of Eurofins Pharma Discovery Services UK Limited. Dose-response experiments were performed using nine compound concentrations in a 96-well microtiter plate. For each assay, all compounds were prepared to a 50× final assay concentration (50 μM) in 100% DMSO, then diluted in a half-log series, with the final top concentration at 1 μM. This working stock of the compound was added to the assay well as the first component in the reaction, followed by the remaining components as detailed in the following assay protocols below. The positive control wells (100% kinase activity) contain all components of the reaction including 2% DMSO (control for solvent effects), except the compound of interest. Blank wells contain all components of the reaction, with the reference inhibitor, staurosporine. This reference compound was used to abolish kinase activity and generated the 0% kinase activity base-line. IC50 values were calculated by nonlinear regression analysis using the sigmoidal dose-response (variable slope) curve fit on XLFit version 5.3 (ID Business Solutions).
Kinase activity and compound inhibition were also investigated using the HTRF® KinEase assay (Cisbio Cat #62TKOPEB) per manufacturer's instructions. In short, compounds were delivered in 300 nL volumes at 10 different concentrations in DMSO (3% final) to empty 384-well assay plates (Corning cat #3824). A mixture of enzyme, 1 μM biotinylated peptide substrate, and buffer in 10 μL volume was added. The assay was started upon the addition of ATP (at Km). The 10 μL reaction was incubated at room temperature. The reaction was stopped upon the addition of detection buffer containing streptavidin-XL665 (5 μL) and TK antibody-Eu3+(5 μL). After a 60 min incubation at room temperature, the fluorescence at 665 nm and 620 nm was read on an Envision microplate reader (Perkin Elmer).
Kinase activity normalized to DMSO (100% activity) and reference compound at 1 μM and (0% activity) was calculated using the fluorescence ratio […]. IC50 values were calculated by nonlinear regression analysis using a 4-parameter logistic curve fit in ActivityBase XE (IDBS).
Example A-1: Human Axl (residues H473-A894 with Q764R, 161 nM) was incubated with 8 mM MOPS pH 7.0, 0.2 mM EDTA, 250 μM KKSRGDYMTMQIG (SEQ ID NO:1), 10 mM magnesium acetate and 10 μM [γ-^33P-ATP]. The reaction was initiated by the addition of the Mg/ATP mix. After incubation for 40 minutes at room temperature, the reaction was stopped by the addition of phosphoric acid to a concentration of 0.5%. A reaction aliquot of 10 μL was then spotted onto a P30 filtermat and washed four times for 4 minutes in 0.425% phosphoric acid and once in methanol prior to drying and scintillation counting. Incorporated ^33P was measured using the Wallac Microbeta scintillation counter (Perkin Elmer).
Example A-2: Human AXL (residues 464-885; CarnaBio, 1 ng/well) was also incubated with enzymatic buffer (Cisbio) supplemented with 5 mM MgCl2, 1 mM DTT, and Supplemental Enzymatic Buffer (SEB; Cisbio). The mixture was added to the pre-plated compounds. The reaction was initiated upon addition of ATP at Km (1.0 μM). The reaction was incubated at room temperature for 50 min and stopped upon the addition of SA-XL665 and TK-antibody both diluted in EDTA-containing kinase detection buffer (Cisbio). The kinase activity was calculated as stated above and the IC50 values were reported.
Background: Time-resolved FRET reads energy transfer from a long-lived donor to a nearby acceptor.

A further assay addresses T2, Human KDR (Homo sapiens, UniProt P35968).
T2 construct: Human KDR (residues K790-V1356, 55 nM); purchased Eurofins Pharma Discovery Services UK Limited (KinaseProfiler, B-1) and/or CarnaBio (B-2)
Nature of the assay: Human KDR kinase assay (33P radiometric / HTRF KinEase). The format is biochemical. The conditions noted are these: protocols of Examples B-1 and/or B-2. The method in brief:
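Radiometric: KDR K790-V1356 (55 nM), MOPS pH 7.0, myelin basic protein, 10 μM [γ-33P]ATP, 40 min at room temperature, filter-bound 33P counted; nine half-log doses, top 1 μM. HTRF: KDR 790-1356, 1 μM biotinylated peptide, ATP at Km (4.0 μM), 40 min, 10 doses. IC50 from logistic fits.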

T2 sequence (P35968 790-1356): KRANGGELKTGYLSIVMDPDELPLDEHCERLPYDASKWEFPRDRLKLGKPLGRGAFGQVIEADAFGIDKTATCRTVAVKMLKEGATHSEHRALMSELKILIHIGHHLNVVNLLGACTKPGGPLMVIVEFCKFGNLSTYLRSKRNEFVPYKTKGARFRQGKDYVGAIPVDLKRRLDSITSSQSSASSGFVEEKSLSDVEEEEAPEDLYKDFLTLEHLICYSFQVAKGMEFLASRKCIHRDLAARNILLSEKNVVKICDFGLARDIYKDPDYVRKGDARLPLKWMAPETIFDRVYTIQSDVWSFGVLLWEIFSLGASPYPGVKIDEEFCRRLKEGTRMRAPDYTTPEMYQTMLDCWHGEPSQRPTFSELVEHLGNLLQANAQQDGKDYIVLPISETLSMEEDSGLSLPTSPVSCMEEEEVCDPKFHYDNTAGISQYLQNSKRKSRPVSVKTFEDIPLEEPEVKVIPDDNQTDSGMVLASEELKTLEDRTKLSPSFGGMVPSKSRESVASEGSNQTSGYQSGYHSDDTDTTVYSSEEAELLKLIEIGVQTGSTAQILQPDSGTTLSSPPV

With `COc1cc2nccc(Oc3ccc(NC(=O)c4cn(CCF)c(C)c(C5=CCCC5)c4=O)cc3F)c2nc1OC` [Compound 11, 5-(Cyclopenten-1-yl)-N-[4-[(6,7-dimethoxy-1,5-naphthyridin-4-yl)oxy]-3-fluorophenyl]-1-(2-fluoroethyl)-6-methyl-4-oxopyridine-3-carboxamide], the IC50 on Human Axl and against Human KDR was not above 100 nM each time.
In the case of `COc1cnc2c(Oc3ccc(NC(=O)c4cn(C)c(C)c(C5=CCOCC5)c4=O)cc3F)ccnc2c1` [Compound 12, 5-(3,6-Dihydro-2H-pyran-4-yl)-N-[3-fluoro-4-[(7-methoxy-1,5-naphthyridin-4-yl)oxy]phenyl]-1,6-dimethyl-4-oxopyridine-3-carboxamide], the IC50 was not above 100 nM against Human Axl and more than 300 nM at Human KDR.
On the same counts, the results for `COc1cc2nccc(Oc3ccc(NC(=O)c4cn(CCF)c(C)c(C5CCCC5)c4=O)cc3F)c2nc1OC` [Compound 13, 5-Cyclopentyl-N-[4-[(6,7-dimethoxy-1,5-naphthyridin-4-yl)oxy]-3-fluorophenyl]-1-(2-fluoroethyl)-6-methyl-4-oxopyridine-3-carboxamide] are not above 100 nM and not above 100 nM.
On the same counts, the results for `COc1cc2nccc(Oc3ccc(NC(=O)c4c(C)cc(C)n(C5=CCCC5)c4=O)cc3F)c2nc1OC` [Compound 14, 1-(Cyclopenten-1-yl)-N-[4-[(6,7-dimethoxy-1,5-naphthyridin-4-yl)oxy]-3-fluorophenyl]-4,6-dimethyl-2-oxopyridine-3-carboxamide] are not above 100 nM and not above 100 nM.
Taken in the same sequence, the figures for `COc1cc2nccc(Oc3ccc(NC(=O)c4c(C)cc(C)n(C5CCCC5)c4=O)cc3F)c2nc1OC` [Compound 15, 1-Cyclopentyl-N-[4-[(6,7-dimethoxy-1,5-naphthyridin-4-yl)oxy]-3-fluorophenyl]-4,6-dimethyl-2-oxopyridine-3-carboxamide] were not above 100 nM and not above 100 nM.
For `COc1cc2nccc(Oc3ccc(NC(=O)c4cnc(C)c(C5=CCCC5)c4O)cc3)c2cc1OC` [Compound 16, 5-(Cyclopenten-1-yl)-N-[4-(6,7-dimethoxyquinolin-4-yl)oxyphenyl]-4-hydroxy-6-methylpyridine-3-carboxamide], the IC50 against Human Axl and against Human KDR was not above 100 nM each time.
Take `COc1cc2nccc(Oc3ccc(NC(=O)c4cnc(C)c(C5=CCOCC5)c4O)cc3)c2cc1OC` [Compound 17, 5-(3,6-Dihydro-2H-pyran-4-yl)-N-[4-(6,7-dimethoxyquinolin-4-yl)oxyphenyl]-4-hydroxy-6-methylpyridine-3-carboxamide]: the IC50 on Human Axl and against Human KDR was not above 100 nM each time.
`COc1cc2nccc(Oc3ccc(NC(=O)c4cnc(C)c(C5=CCCC5)c4O)cc3F)c2cc1OC` [Compound 18, 5-(Cyclopenten-1-yl)-N-[4-(6,7-dimethoxyquinolin-4-yl)oxy-3-fluorophenyl]-4-hydroxy-6-methylpyridine-3-carboxamide]: the IC50 on Human Axl and on Human KDR was not above 100 nM each time.
Consider `COc1cc2nccc(Oc3ccc(NC(=O)c4cnc(C)c(C5=CCOCC5)c4O)cc3F)c2cc1OC` [Compound 19, 5-(3,6-Dihydro-2H-pyran-4-yl)-N-[4-(6,7-dimethoxyquinolin-4-yl)oxy-3-fluorophenyl]-4-hydroxy-6-methylpyridine-3-carboxamide], for which the IC50 against Human Axl and at Human KDR was not above 100 nM throughout.
Consider `C=C(C)n1c(C)cc(C)c(C(=O)Nc2ccc(Oc3ccnc4cc(OC)c(OC)nc34)c(F)c2)c1=O` [Compound 20, N-[4-[(6,7-Dimethoxy-1,5-naphthyridin-4-yl)oxy]-3-fluorophenyl]-4,6-dimethyl-2-oxo-1-prop-1-en-2-ylpyridine-3-carboxamide], for which the IC50 against Human Axl and on Human KDR was not above 100 nM each time.
In the case of `C=C(C)n1c(C)cc(C)c(C(=O)Nc2ccc(Oc3ccnc4cc(OC)cnc34)c(F)c2)c1=O` [Compound 21, N-[3-Fluoro-4-[(7-methoxy-1,5-naphthyridin-4-yl)oxy]phenyl]-4,6-dimethyl-2-oxo-1-prop-1-en-2-ylpyridine-3-carboxamide], the results for the IC50 on Human Axl and against Human KDR were more than 300 nM and 100 to 300 nM, respectively.
On the same counts, the results for `COc1cc2nccc(Oc3ccc(NC(=O)c4c(C)c(Br)c(C)n(C5CCCC5)c4=O)cc3F)c2nc1OC` [Compound 22, 5-Bromo-1-cyclopentyl-N-[4-[(6,7-dimethoxy-1,5-naphthyridin-4-yl)oxy]-3-fluorophenyl]-4,6-dimethyl-2-oxopyridine-3-carboxamide] are not above 100 nM and 100 to 300 nM.
Take `COc1cc2nccc(Oc3ccc(NC(=O)c4cnc(C)c(C5=CCCCC5)c4O)cc3F)c2cc1OC` [Compound 23, 5-(Cyclohexen-1-yl)-N-[4-(6,7-dimethoxyquinolin-4-yl)oxy-3-fluorophenyl]-4-hydroxy-6-methylpyridine-3-carboxamide]: the half-inhibitory concentration (IC50) against Human Axl and at Human KDR was not above 100 nM throughout.
On to `COc1cc2nccc(Oc3ccc(NC(=O)c4cnc(C)c(C5=CCCCC5)c4O)cc3)c2cc1OC` [Compound 24, 5-(Cyclohexen-1-yl)-N-[4-(6,7-dimethoxyquinolin-4-yl)oxyphenyl]-4-hydroxy-6-methylpyridine-3-carboxamide], for which the IC50 against Human Axl and against Human KDR was not above 100 nM each time.
Consider `COc1cc2nccc(Oc3ccc(NC(=O)c4cnc(C)c(/C=C/C5CCCC5)c4O)cc3F)c2nc1OC` [Compound 25, 5-[(E)-2-Cyclopentylethenyl]-N-[4-[(6,7-dimethoxy-1,5-naphthyridin-4-yl)oxy]-3-fluorophenyl]-4-hydroxy-6-methylpyridine-3-carboxamide], for which the IC50 against Human Axl and on Human KDR was not above 100 nM each time.
For the molecule `COc1cc2nccc(Oc3ccc(NC(=O)c4cnc(C)c(/C=C/C5CC5)c4O)cc3F)c2nc1OC` [Compound 26, 5-[(E)-2-Cyclopropylethenyl]-N-[4-[(6,7-dimethoxy-1,5-naphthyridin-4-yl)oxy]-3-fluorophenyl]-4-hydroxy-6-methylpyridine-3-carboxamide], the IC50 against Human Axl and against Human KDR was not above 100 nM in each case.

The record behind these values is patent US20240158393A1, “PYRIDONE COMPOUNDS AND METHODS OF USE” (Exelixis, Inc., priority 2021, published 2024).
